Values quoted from earlier work in PMC3892053, “Pharmacokinetic/pharmacodynamic modeling for the determination of a cimicoxib dosing regimen in the dog” (BMC Veterinary Research, 2013).
Where two headings read alike, the source gives them in different places.

How the values were obtained:
COX-1/COX-2 = details: cited from earlier work; for greater potency for COX-2 inhibition: highly selective COX-2 inhibitors
[1] = cited from earlier work
g.i.t side effects = system: g.i.t side effects; design: method as in PMID 16871494; details: large scale survey, mainly vomiting; cited from earlier work
wound healing = system: wound healing; design: method as in PMID 19175721; details: mechanism independent of prostaglandin synthesis; cited from earlier work
nociceptive threshold = system: nociceptive threshold; design: method as in PMID 19186002; details: rats, given systemically; cited from earlier work
[2] = as quoted in Discussion, no reference given
[3] = population PK survey in osteoarthritic dogs

CCc1ccc(Nc2c(F)c(F)cc(F)c2F)c(CC(=O)O)c1 [robenacoxib]
greater potency for COX-2 inhibition (COX-1/COX-2): more than 100 fold | half-life [1, 2]: 1 h | half-life ([1]; beagle dogs): 0.63 h | plasma clearance ([1]; dog): 13.5 mL/min/kg

CC1(C)OC(=O)C(OCC2CC2)=C1c1ccc(S(C)(=O)=O)cc1 [firocoxib]
greater potency for COX-2 inhibition (COX-1/COX-2): more than 100 fold | COX-1/COX-2 selectivity index (COX-1/COX-2; whole blood assay): 384 | withdrawal rate associated with g.i.t side effects (g.i.t side effects): 2.9 % of dogs | effect on wound healing (wound healing): slow down wound healing | half-life [1, 2]: 7 h | plasma clearance ([1]; dog): 7.7 mL/min/kg | half-life ([1]; mixed-breed dogs): 5.9 h

CN1C(C(=O)Nc2ccccn2)=C(O)c2ccccc2S1(=O)=O [piroxicam]
hypoalgesia (ipsilateral nociceptive threshold raised above basal values) (nociceptive threshold): not observed

NS(=O)(=O)c1ccc(-n2nc(C(F)(F)F)cc2-c2ccc(F)cc2)cc1 [mavacoxib]
half-life ([1]; dog, in vivo): 415 h | plasma clearance ([1]; dog, in vivo): 0.045 mL/min/kg | half-life of some beagle dogs ([1]; laboratory beagle dogs): > 720 h | terminal half-life in some dogs (5% of the population) [1, 3]: exceeded 80 days | terminal half-life, extreme values [1, 3]: up to 140 days | typical terminal half-life (population mean) [1, 3]: 1060 h

Cc1ccc(-c2cc(C(F)(F)F)nn2-c2ccc(S(N)(=O)=O)cc2)cc1 [celecoxib]
hypoalgesia (ipsilateral nociceptive threshold raised above basal values) (nociceptive threshold): induced a state of hypoalgesia

COc1ccc2c(c1)c(CC(=O)O)c(C)n2C(=O)c1ccc(Cl)cc1 [indomethacin]
hypoalgesia (ipsilateral nociceptive threshold raised above basal values) (nociceptive threshold): not observed

CC(C(=O)O)c1ccc2c(c1)[nH]c1ccc(Cl)cc12 (stereo not drawn) [Carprofen]
half-life ([1]; dogs): about 9 h
